Tests used:
[1] = molecular target: GPR55 mutant T176A (Gα13) (Homo sapiens, UniProt Q9Y2T6, T176A); assay: BRET² G protein dissociation assay, GPR55 T176A with Gα13; type: cell-based
Source text: (§1) To validate the functionality of the GPR55 cryo-EM construct, we conducted bioluminescence resonance energy transfer 2 (BRET²)-based G protein dissociation assays[46],[47] using an engineered heterotrimeric G13 protein. The N-terminal GFP fusion of the receptor was additionally modified with a G67A mutation to disrupt fluorescence properties. We employed human embryonic kidney (HEK) cells overexpressing wt or mutant GPR55 together with Gβ3, Gγ9-GFP, and Gα13 tagged with Renilla luciferase 8 (Rluc8).
(§2) G protein dissociation assays were performed according to the original protocols of the TRUPATH BRET² assay[47],[87] but with subtle modifications as previously described[61],[88],[89]. All reagents and cells were obtained from Thermo Fisher Scientific unless indicated otherwise. The coding sequences for the G protein biosensors[47] (Gα12-Rluc8, Gα13-Rluc8, wt Gβ3, and Gγ9-GFP), the wt GPR55, the construct used for cryo-EM (with GFP bearing a G67A mutation to disrupt fluorescence properties[48] for BRET² assays), GPR55 binding pocket mutants (G152^4.56F, G152^4.56W, N171^ECL2Q, N171^ECL2A, T176^5.33A, R253^6.62A), and the wt TBXA2R were codon-optimized for Homo sapiens, gene-synthesized, and sub-cloned into pcDNA^TM3.1(+) between NheI and HindIII restriction sites by GeneArt (Thermo Fisher Scientific). […] Freshly grown cells were washed with Dulbecco’s Balanced Salt Solution (DPBS, cat. #14200075) and detached using trypsin-ethylenediaminetetraacetic acid (trypsin-EDTA) (cat. #25300-062). Then, the cells were reconstituted to 500,000 cells per mL with fresh medium, and 1,000,000 cells were seeded into each well of a 6-well plate. After 3 h incubation at 37 °C and 5% CO2, adherent cells were transfected with 600 ng DNA (1:1:1:1 ratio of plasmid DNA for GPR55, wt Gβ3, Gγ9-GFP, and Gα12-Rluc8 or Gα13-Rluc8). Plasmid DNA was mixed with 1.5 µL Lipofectamine^TM 2000 (cat. #11668027) in Opti-MEM^TM medium (cat. #31985062) and incubated for 20 min. Then, the mixture was added to each well of the 6-well plate following 24 h incubation at 37 °C and 5% CO2. Transfected cells were washed with DPBS, detached using EDTA (Versene, cat. #15040066), and reconstituted into fresh medium at 500,000 cells mL^−1. From this suspension, 50,000 cells were seeded into each well of a white-bottom 96-well plate (Nunc^TM MicroWell^TM 96 wells, cat. #136101) following overnight incubation at 37 °C and 5% CO2. Then, the adherent cells were washed with assay medium [Hank’s balanced salt solution (HBSS, cat. #14065056) plus 20 mM HEPES pH 7.4 (cat. #15630056)] and finally reconstituted into 50 µL of the same medium. […] Methoxy e-Coelenterazine was used as luciferase substrate (Prolume Purple, NanoLight Technology, cat. #369), reconstituted at 1 mM in methanol and diluted to 37.5 µM with assay buffer (7.5 µM final assay concentration). The assay was started by the addition of 20 µL luciferase substrate to each well of the assay plate using a Multidrop^TM Combi reagent dispenser (Thermo Fisher Scientific), followed by 5 min incubation at room temperature. Then, 30 µL of agonist dilutions or DMSO control was added (final DMSO concentration 1.5%), followed by an additional 5 min incubation at room temperature. BRET² measurements were performed with a PHERAstar® FSX microplate reader (BMG LABTECH) using a BRET² filter (donor emission 370–450 nm, acceptor emission 500–530 nm) at the maximum fluorescence gain of 3600. BRET² ratios were calculated by dividing GFP emission signals from Rluc8 emission counts. Buffer-DMSO controls were subtracted from each data point to calculate ΔBRET² ratios.

[2] = molecular target: GPR55 mutant G152W (Gα13) (Homo sapiens, UniProt Q9Y2T6, G152W); assay: BRET² G protein dissociation assay, GPR55 G152W with Gα13; type: cell-based
Source text: as §1, §2

GPR55 mutant T176A (Gα13), sequence (Q9Y2T6 whole entry T176A, the tested form may be a part): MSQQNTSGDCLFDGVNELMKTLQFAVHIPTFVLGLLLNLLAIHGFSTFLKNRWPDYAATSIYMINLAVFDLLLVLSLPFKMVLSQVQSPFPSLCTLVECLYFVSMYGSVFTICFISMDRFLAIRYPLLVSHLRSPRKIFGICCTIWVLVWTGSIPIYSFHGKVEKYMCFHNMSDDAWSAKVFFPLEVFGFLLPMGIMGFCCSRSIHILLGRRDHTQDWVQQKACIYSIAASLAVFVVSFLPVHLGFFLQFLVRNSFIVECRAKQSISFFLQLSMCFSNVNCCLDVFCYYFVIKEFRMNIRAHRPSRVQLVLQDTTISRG
GPR55 mutant T176A (Gα13), sequence (Q14344 whole entry partner, the tested form may be a part): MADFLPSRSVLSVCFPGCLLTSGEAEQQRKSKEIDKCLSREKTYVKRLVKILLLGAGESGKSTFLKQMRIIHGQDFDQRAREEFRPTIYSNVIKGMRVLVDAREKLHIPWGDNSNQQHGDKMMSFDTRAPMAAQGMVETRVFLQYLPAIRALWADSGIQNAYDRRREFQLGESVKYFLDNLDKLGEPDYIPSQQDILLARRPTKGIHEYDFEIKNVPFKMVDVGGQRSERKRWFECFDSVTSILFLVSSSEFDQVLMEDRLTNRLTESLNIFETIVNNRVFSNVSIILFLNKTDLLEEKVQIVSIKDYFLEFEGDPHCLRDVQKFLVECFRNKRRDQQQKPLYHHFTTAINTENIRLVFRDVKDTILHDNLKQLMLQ
GPR55 mutant T176A (Gα13), sequence (P16520 whole entry partner, the tested form may be a part): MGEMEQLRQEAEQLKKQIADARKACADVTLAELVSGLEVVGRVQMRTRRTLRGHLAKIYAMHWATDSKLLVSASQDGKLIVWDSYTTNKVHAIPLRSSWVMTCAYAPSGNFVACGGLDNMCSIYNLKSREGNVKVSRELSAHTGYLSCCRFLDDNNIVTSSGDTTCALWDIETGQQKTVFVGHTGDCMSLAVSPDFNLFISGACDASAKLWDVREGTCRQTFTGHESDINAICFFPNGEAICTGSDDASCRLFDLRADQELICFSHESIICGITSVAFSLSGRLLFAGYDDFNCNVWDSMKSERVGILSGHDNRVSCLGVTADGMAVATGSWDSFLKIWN
GPR55 mutant T176A (Gα13), sequence (O14610 1-66 partner limits assumed): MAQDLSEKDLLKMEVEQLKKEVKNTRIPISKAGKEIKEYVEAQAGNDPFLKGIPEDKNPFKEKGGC
GPR55 mutant G152W (Gα13), sequence (Q9Y2T6 whole entry G152W): as the sequence (Q9Y2T6 whole entry T176A, the tested form may be a part) above, with G152W, A176T counted along it
GPR55 mutant G152W (Gα13), sequence (Q14344 whole entry partner): as the sequence (Q14344 whole entry partner, the tested form may be a part) above
GPR55 mutant G152W (Gα13), sequence (P16520 whole entry partner): as the sequence (P16520 whole entry partner, the tested form may be a part) above
GPR55 mutant G152W (Gα13), sequence (O14610 1-66 partner limits assumed): as the sequence (O14610 1-66 partner limits assumed) above

SMILES | Mean (plotted) BRET² response, GPR55-T176A-G13 ([1]; Concentration 300 pM) | Mean (plotted) BRET² response, GPR55-T176A-G13 ([1]; Concentration 1e-9 M) | Mean (plotted) BRET² response, GPR55-T176A-G13 ([1]; Concentration 3e-9 M) | Mean (plotted) BRET² response, GPR55-T176A-G13 ([1]; Concentration 1e-8 M) | Mean (plotted) BRET² response, GPR55-T176A-G13 ([1]; Concentration 3e-8 M) | Mean (plotted) BRET² response, GPR55-T176A-G13 ([1]; Concentration 1e-7 M) | Mean (plotted) BRET² response, GPR55-T176A-G13 ([1]; Concentration 3e-7 M) | Mean (plotted) BRET² response, GPR55-T176A-G13 ([1]; Concentration 1e-6 M) | Mean (plotted) BRET² response, GPR55-T176A-G13 ([1]; Concentration 3e-6 M) | Mean (plotted) BRET² response, GPR55-T176A-G13 ([1]; Concentration 1e-5 M) | Mean (plotted) BRET² response, GPR55-T176A-G13 ([1]; Concentration 3e-5 M) | Mean (plotted) BRET² response, GPR55-G152W-G13 ([2]; Concentration 300 pM) | Mean (plotted) BRET² response, GPR55-G152W-G13 ([2]; Concentration 1e-9 M) | Mean (plotted) BRET² response, GPR55-G152W-G13 ([2]; Concentration 3e-9 M) | Mean (plotted) BRET² response, GPR55-G152W-G13 ([2]; Concentration 1e-8 M) | Mean (plotted) BRET² response, GPR55-G152W-G13 ([2]; Concentration 3e-8 M) | Mean (plotted) BRET² response, GPR55-G152W-G13 ([2]; Concentration 1e-7 M) | Mean (plotted) BRET² response, GPR55-G152W-G13 ([2]; Concentration 3e-7 M) | Mean (plotted) BRET² response, GPR55-G152W-G13 ([2]; Concentration 1e-6 M) | Mean (plotted) BRET² response, GPR55-G152W-G13 ([2]; Concentration 3e-6 M) | further results
Cc1cccc(N2CCN(C(=O)c3cc(S(=O)(=O)N(C)C)ccc3N3CCCC3)CC2)c1C [ML184, 3-[[4-(2,3-dimethylphenyl)-1-piperazinyl]carbonyl]-N,N-dimethyl-4-(1-pyrrolidinyl)benzenesulfonamide] | 0.001302 | -0.0007282 | -0.005903 | -0.01189 | -0.02424 | -0.03886 | -0.05218 | -0.06011 | -0.06604 | -0.06889 | -0.07107 | -0.02434 | -0.04124 | -0.05947 | -0.07141 | -0.07973 | -0.08343 | -0.08701 | -0.08751 | -0.0887 | EC50 ([1]; GPR55 T176A, Gα13): 0.0776 µM; Emax at 30 µM ([1]; GPR55 T176A, Gα13, 30 µM ligand, same normalization, read-out: Efficacy ± SEM (%)): 100 ± 1%; reduction of potency compared to wt GPR55 ([1]; T176A mutant): 2 fold; Mean (plotted) BRET² response, GPR55-G152W-G13 ([2]; Concentration 1e-5 M): -0.09176; Mean (plotted) BRET² response, GPR55-G152W-G13 ([2]; Concentration 3e-5 M): -0.09408; increase of potency compared to wt GPR55 ([2]; G152W mutant): 34 fold; Emax at 30 µM ([2]; GPR55 G152W, Gα13, 30 µM ligand, same normalization, read-out: Efficacy ± SEM (%)): 107 ± 1%; EC50 ([2]; GPR55 G152W, Gα13, calculated by extrapolating ΔBRET² ratios for concentrations <0.3 nM): 0.00135 µM
CCCCC[C@H](O)/C=C/[C@@H]1[C@@H](C/C=C\CCCC(=O)O)[C@H]2CO[C@@H]1C2 [U-46619] | 0.0002029 | 0.000161 | 0.0002381 | -0.0002172 | 0.0004783 | -0.0003604 | 0.004625 | 0.001082 | -0.0002941 | 0.003133 | 0.0069 | -0.0004516 | -0.001887 | 7.154e-5 | -0.01413 | -6.439e-5 | 0.001032 | 0.002926 | -0.00228 | -0.002139 | Mean (plotted) BRET² response, GPR55-T176A-G13 ([1]; Concentration 10 pM): -0.0049; Mean (plotted) BRET² response, GPR55-T176A-G13 ([1]; Concentration 30 pM): 0.00215; Mean (plotted) BRET² response, GPR55-T176A-G13 ([1]; Concentration 100 pM): 0.0004; Mean (plotted) BRET² response, GPR55-G152W-G13 ([2]; Concentration 10 pM): 0.00225; Mean (plotted) BRET² response, GPR55-G152W-G13 ([2]; Concentration 30 pM): -0.00435; Mean (plotted) BRET² response, GPR55-G152W-G13 ([2]; Concentration 100 pM): -0.00495; Mean (plotted) BRET² response, GPR55-G152W-G13 ([2]; Concentration 1e-5 M): -0.008827; Mean (plotted) BRET² response, GPR55-G152W-G13 ([2]; Concentration 3e-5 M): -0.0048

Source: publication PMC11861906, “Structural basis for lipid-mediated activation of G protein-coupled receptor GPR55” (Nature Communications, 2025)
